Results published in US20250098679A1, “HERBICIDAL PYRIDONE DERIVATIVES” (SYNGENTA CROP PROTECTION AG, priority 2021, published 2025).

How the values were obtained:
Format in all cases: in vivo
Details in all cases: evaluated after 13 days
Setaria faberi (SETFA) [1] = experiment: Pre-emergence Test, Setaria faberi (SETFA)
[2] = system: Echinochloa crus-galli (ECHCG); experiment: Pre-emergence Test, Echinochloa crus-galli (ECHCG)
Zea mays (ZEAMX) [3] = experiment: Pre-emergence Test, Zea mays (ZEAMX)
[4] = system: Ipomoea hederacea (IPOHE); experiment: Pre-emergence Test, Ipomoea hederacea (IPOHE)
[5] = system: Amaranthus palmeri (AMAPA); experiment: Pre-emergence Test, Amaranthus palmeri (AMAPA)
[6] = system: Amaranthus retoflexus (AMARE); experiment: Pre-emergence Test, Amaranthus retoflexus (AMARE)
Setaria faberi (SETFA) [7] = experiment: Post-emergence Test, Setaria faberi (SETFA); design: key to percentage damage caused to the plant, SETFA (five-point scale): 5=81-100%, 4=61-80%, 3=41-60%, 2=21-40%, 1=0-20% damage
Outline: (§1)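 Pots sprayed with compound in acetone/water (50:50) with 0.5% Tween 20, at 1000 g/ha unless noted, glasshouse 24/16 °C, 14 h light, 65% humidity. Damage scored 13 days after spraying on a five-point scale (5=81-100% to 1=0-20%).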

[8] = system: Echinochloa crus-galli (ECHCG); experiment: Post-emergence Test, Echinochloa crus-galli (ECHCG); design: key to percentage damage caused to the plant, ECHCG (five-point scale): 5=81-100%, 4=61-80%, 3=41-60%, 2=21-40%, 1=0-20% damage
Outline: as §1

Zea mays (ZEAMX) [9] = experiment: Post-emergence Test, Zea mays (ZEAMX); design: key to percentage damage caused to the plant, ZEAMX (five-point scale): 5=81-100%, 4=61-80%, 3=41-60%, 2=21-40%, 1=0-20% damage
Outline: as §1

[10] = system: Ipomoea hederacea (IPOHE); experiment: Post-emergence Test, Ipomoea hederacea (IPOHE); design: key to percentage damage caused to the plant, IPOHE (five-point scale): 5=81-100%, 4=61-80%, 3=41-60%, 2=21-40%, 1=0-20% damage
Outline: as §1

[11] = system: Amaranthus palmeri (AMAPA); experiment: Post-emergence Test, Amaranthus palmeri (AMAPA); design: key: 5=81-100%, 4=61-80%, 3=41-60%, 2=21-40%, 1=0-20% damage
Outline: as §1

[12] = system: Amaranthus retoflexus (AMARE); experiment: Post-emergence Test, Amaranthus retoflexus (AMARE); design: key to percentage damage caused to the plant, AMARE (five-point scale): 5=81-100%, 4=61-80%, 3=41-60%, 2=21-40%, 1=0-20% damage
Outline: as §1

SMILES | Pre-emergence Test SETFA, percentage damage caused to the plant (five-point scale) (Setaria faberi (SETFA) [1]; 250 g/Ha (*)) | Pre-emergence Test SETFA, percentage damage caused to the plant (five-point scale) (Setaria faberi (SETFA) [1]; 1000 g/ha) | Pre-emergence Test ECHCG, percentage damage caused to the plant (five-point scale) ([2]; 250 g/Ha (*)) | Pre-emergence Test ECHCG, percentage damage caused to the plant (five-point scale) ([2]; 1000 g/ha) | Pre-emergence Test ZEAMX, percentage damage caused to the plant (five-point scale) (Zea mays (ZEAMX) [3]; 1000 g/ha) | Pre-emergence Test IPOHE, percentage damage caused to the plant (five-point scale) ([4]; 1000 g/ha) | Pre-emergence Test AMAPA, percentage damage caused to the plant (five-point scale) ([5]; 1000 g/ha) | Pre-emergence Test AMARE, percentage damage caused to the plant (five-point scale) ([6]; 1000 g/ha) | percentage damage caused to the plant, SETFA (five-point scale) (Setaria faberi (SETFA) [7]; 250 g/Ha) | percentage damage caused to the plant, SETFA (five-point scale) (Setaria faberi (SETFA) [7]; 1000 g/ha) | percentage damage caused to the plant, ECHCG (five-point scale) ([8]; 250 g/Ha) | percentage damage caused to the plant, ECHCG (five-point scale) ([8]; 1000 g/ha) | percentage damage caused to the plant, ZEAMX (five-point scale) (Zea mays (ZEAMX) [9]; 250 g/Ha) | percentage damage caused to the plant, ZEAMX (five-point scale) (Zea mays (ZEAMX) [9]; 1000 g/ha) | percentage damage caused to the plant, IPOHE (five-point scale) ([10]; 250 g/Ha) | percentage damage caused to the plant, IPOHE (five-point scale) ([10]; 1000 g/ha) | percentage damage caused to the plant, AMAPA (five-point scale) ([11]; 250 g/Ha) | percentage damage caused to the plant, AMAPA (five-point scale) ([11]; 1000 g/ha) | percentage damage caused to the plant, AMARE (five-point scale) ([12]; 250 g/Ha) | percentage damage caused to the plant, AMARE (five-point scale) ([12]; 1000 g/ha) | further results
CCn1c(Cn2cc(F)cn2)cc(=O)c(C(=O)O)c1-c1ccc(Cl)c(Cl)c1 [Compound 9, 2-(3,4-dichlorophenyl)-1-ethyl-6-[(4-fluoropyrazol-1-yl)methyl]-4-oxo-pyridine-3-carboxylic acid] | 5 (5=81-100%) | 5 (5=81-100%) | 5 (5=81-100%) | 5 (5=81-100%) | 0 | 0 | 2 (2=21-40%) | 1 (1=0-20%) | 4 (4=61-80%) | 3 (3=41-60%) | 3 (3=41-60%) | 4 (4=61-80%) | 0 | 2 (2=21-40%) | 3 (3=41-60%) | 1 (1=0-20%) | 0 | 1 (1=0-20%) | 0 | 0 | Pre-emergence Test ZEAMX, percentage damage caused to the plant (five-point scale) (Zea mays (ZEAMX) [3]; 250 g/Ha (*)): 0; Pre-emergence Test IPOHE, percentage damage caused to the plant (five-point scale) ([4]; 250 g/Ha (*)): 1 (1=0-20%); Pre-emergence Test AMAPA, percentage damage caused to the plant (five-point scale) ([5]; 250 g/Ha (*)): 1 (1=0-20%); Pre-emergence Test AMARE, percentage damage caused to the plant (five-point scale) ([6]; 250 g/Ha (*)): 0
CCn1c(Cn2ccc(F)n2)cc(=O)c(C(=O)O)c1-c1ccc(Cl)c(Cl)c1 [Compound 36, 2-(3,4-dichlorophenyl)-1-ethyl-6-[(3-fluoropyrazol-1-yl)methyl]-4-oxo-pyridine-3-carboxylic acid] | 4 (4=61-80%) |  | 3 (3=41-60%) |  |  |  |  |  | 4 (4=61-80%) |  | 3 (3=41-60%) |  | 2 (2=21-40%) |  | 4 (4=61-80%) |  | 1 (1=0-20%) |  | 2 (2=21-40%) |  | Pre-emergence Test ZEAMX, percentage damage caused to the plant (five-point scale) (Zea mays (ZEAMX) [3]; 250 g/Ha (*)): 0; Pre-emergence Test IPOHE, percentage damage caused to the plant (five-point scale) ([4]; 250 g/Ha (*)): 0; Pre-emergence Test AMAPA, percentage damage caused to the plant (five-point scale) ([5]; 250 g/Ha (*)): 2 (2=21-40%); Pre-emergence Test AMARE, percentage damage caused to the plant (five-point scale) ([6]; 250 g/Ha (*)): 1 (1=0-20%)
CCOc1cc(C(F)(F)F)nn1Cc1cc(=O)c(C(=O)O)c(-c2ccc(Cl)c(Cl)c2)n1CC [Compound 148, 2-(3,4-dichlorophenyl)-6-[[5-ethoxy-3-(trifluoromethyl)pyrazol-1-yl]methyl]-1-ethyl-4-oxo-pyridine-3-carboxylic acid] | 2 (2=21-40%) | 5 (5=81-100%) | 0 | 2 (2=21-40%) | 0 | 2 (2=21-40%) | 1 (1=0-20%) | 0 | 3 (3=41-60%) | 4 (4=61-80%) | 2 (2=21-40%) | 4 (4=61-80%) | 1 (1=0-20%) | 2 (2=21-40%) | 2 (2=21-40%) | 2 (2=21-40%) | 1 (1=0-20%) | 3 (3=41-60%) | 1 (1=0-20%) | 3 (3=41-60%) | Pre-emergence Test ZEAMX, percentage damage caused to the plant (five-point scale) (Zea mays (ZEAMX) [3]; 250 g/Ha (*)): 0; Pre-emergence Test IPOHE, percentage damage caused to the plant (five-point scale) ([4]; 250 g/Ha (*)): 0; Pre-emergence Test AMAPA, percentage damage caused to the plant (five-point scale) ([5]; 250 g/Ha (*)): 0; Pre-emergence Test AMARE, percentage damage caused to the plant (five-point scale) ([6]; 250 g/Ha (*)): 0
CCn1c(Cn2cnc([N+](=O)[O-])c2)cc(=O)c(C(=O)O)c1-c1ccc(Cl)c(Cl)c1 [Compound 50, 2-(3,4-dichlorophenyl)-1-ethyl-6-[(4-nitroimidazol-1-yl)methyl]-4-oxo-pyridine-3-carboxylic acid] |  | 0 |  | 1 (1=0-20%) | 0 | 0 | 1 (1=0-20%) | 1 (1=0-20%) |  | 2 (2=21-40%) |  | 1 (1=0-20%) |  | 1 (1=0-20%) |  | 2 (2=21-40%) |  | 3 (3=41-60%) |  | 0 | 
CCn1c(Cn2ccc(C(F)(F)F)n2)c(Br)c(=O)c(C(=O)O)c1-c1ccc(Cl)c(Cl)c1 [Compound 18, 5-bromo-2-(3,4-dichlorophenyl)-1-ethyl-4-oxo-6-[[3-(trifluoromethyl)pyrazol-1-yl]methyl]pyridine-3-carboxylic acid] |  | 2 (2=21-40%) |  | 1 (1=0-20%) | 0 | 0 | 0 | 0 | 1 (1=0-20%) | 3 (3=41-60%) | 1 (1=0-20%) | 3 (3=41-60%) | 1 (1=0-20%) | 2 (2=21-40%) | 1 (1=0-20%) | 1 (1=0-20%) | 0 | 2 (2=21-40%) | 1 (1=0-20%) | 1 (1=0-20%) | 
